From US9962351B2, “Small molecule substance for improving sensitivity of bacteria to antibiotics” (priority 2012, dated 2018)
Converted amounts (≈) assume the structure as drawn. Read-outs that look alike come from different tables or passages of the source.

Assays:
[1] = tested on: Escherichia coli K12 BW25113; assay: MIC by double dilution method, initial bacteria; assay type: cell-based; settings: for MIC: Escherichia coli, BW25113, read-out: MIC0
Protocol: (§1) Escherichia coli is a bacterium that is most commonly found in the gut of human and animal. It mainly parasitizes in the intestines, and accounts for about 1% of the intestine bacteria. Minimum inhibitory concentration (MIC) of Escherichia coli K12 BW25113 for ten kinds of antibiotics was detected with double dilution method. Escherichia coli K12 BW25113 of 10^5 colony forming unit/ml was cultured respectively in Luria-Bertani (LB) liquid medium separately with each of ten antibiotics at the concentration of ½ MIC at 37° C., and was serially passaged 10 times, so that the MIC of single colony was determined.

[2] = tested on: antibiotic-resistant Escherichia coli (passaged K12 BW25113); assay: MIC of single colony after 10 serial passages with antibiotic at 1/2 MIC; assay type: cell-based; settings: for MIC: Escherichia coli, BW25113, read-out: MIC10; for MIC10/MIC0: ratio of MIC after to before passage
Protocol: as §1

[3] = tested on: ampicillin-resistant Escherichia coli biofilm; assay: Biofilm on PE-50 catheters in vitro, survival rate; assay type: cell-based; settings: 6 hours
Protocol: (§2) Single clone of ampicillin-resistant Escherichia coli was selected and incubated in LB medium overnight, then transferred into 2 mL fresh LB medium according to the proportion of 1:200 dilutions and transferred to 6 mm ultraviolet sterilized PE-50 catheters. The catheters were inoculated in 1 mL LB at 37 for 24 h. The culture medium was changed every 24 hours for 3 days. The biofilm of ampicillin-resistant bacteria in PE50 catheters were washed with 1 mL sterile phosphate-buffered saline five times to remove loosely adherent cells, and then transferred to 1.5 mL EP tubes.
The test was divided into six groups: saline solution control, 20 mM glutamine, 160 μg/mL ampicillin, 160 μg/mL ampicillin plus 20 mM glutamine, 160 μg/mL ampicillin plus 20 mM glucose, 160 μg/mL ampicillin plus 20 mM glutamine and 20 mM glucose. The catheters were cultured in a shaker at 200 rpm at 37 for 6 hours. The bacterial biofilm was removed from catheters with sonication for 10 minutes. Serial dilutions and spot-plating were performed to determine the cell number. The bacterial survival rate was calculated as: viable counts in treatment group/viable counts in control group×100%.

[4] = tested on: Escherichia coli K12 BW25113 (control bacteria); assay: Viable counts and survival rate of control bacteria; assay type: cell-based; settings: 160 μg/mL ampicillin, without or with 20 mM glutamine, 4 hours
Protocol: The viable counts and survival rate of bacteria were calculated after added with 20 mM glutamine and 160 μg/mL ampicillin for 4 hours.
The viable counts and survival rate of bacteria were calculated after added with 20 mM glutamine and 4 kinds of penicillins (does for control bacteria were: ampicillin 25 μg/mL, penicillin G 200 μg/mL, amoxicillin 20 μg/mL, carbenicillin 100 μg/mL; does for antibiotic resistant bacteria were: ampicillin 320 μg/mL, penicillin G 2560 μg/mL, amoxicillin 512 μg/mL, carbenicillin 320 μg/mL) for 4 hours.
The viable counts and survival rate of bacteria were calculated after added with 20 mM glutamine and antibiotics at the concentration of 8 times of MIC for 4 hours.

[5] = tested on: ampicillin-resistant Escherichia coli biofilm; assay: Mouse urinary tract catheter biofilm model, bacterial survival rate in biofilm; assay type: in vivo; settings: mice, tail intravenous injection twice-daily for 3 days; glutamine 100 mg kg−1, glucose 100 mg kg−1, ampicillin 320 mg kg−1 as present
Protocol: as §2
In vivo experiments in mice, female mice (5 weeks, weighing 18-20 g) received surgical implantation in the urinary tract of PESO catheter tubes. The mice were randomly divided into six groups in 48 h after the surgery, five each group. The six groups included treatment with saline (group 1), 100 mg kg^−1 glutamine (group 2), 320 mg kg^−1 ampicillin (group 3), 100 mg kg^−1 glutamine plus 320 mg kg^−1 ampicillin (group 4), 100 mg kg^−1 glucose plus 320 mg kg^−1 ampicillin (group 5), and 100 mg kg^−1 glutamine and 100 mg kg^−1 glucose plus 320 mg kg^−1 ampicillin (group 6) by tail intravenous injection for 3 days, twice-daily. Catheter tubes were extracted in 24 hours after the last treatment. […] The survival rate was calculated as: viable counts in treatment group/viable counts in control group×100%.

[6] = tested on: ampicillin-resistant Escherichia coli (AMP-R); assay type: cell-based
Protocol: Bacterium cultures of 20 mL were collected and centrifuged at 8,000 rpm for 5 minutes. The bacterial pellets were washed with equal volume of 0.85% saline solution, suspended in M9 medium containing 10 mM sodium acetate and then adjusted to OD600 of 0.5. […] These mixtures were cultured in a shaker at 200 rpm at 37° C. for 4 h. Then 100 μL of bacterial suspension was used for bacterial plate counting.
To investigate the effect of antibiotic dose on the sensitivity of bacteria to antibiotics by glutamine, 20 mM glutamine and 20, 40, 80, 160, 240, 320 and 400 μg/mL ampicillin were used to treat ampicillin-resistant Escherichia coli for 4 hours, and then bacterial plate counting was conducted. The survival rates of bacteria with and without glutamine were compared at the same antibiotic concentration.
To investigate the effect of exposure time on the killing efficiency, the viable counts of bacteria were counted during 1-8 hours after spiked with 20 mM glutamine and 160 μg/mL ampicillin.
To investigate the effect of glutamine concentration on killing efficiency and the optimum bactericidal concentrations, different concentrations of glutamine were added to 160 μg/mL ampicillin. The number of live bacteria was counted after 4 hours. The survival rate was calculated according to the formula below: viable counts at different concentration of glutamine/viable counts without glutamine×100%.
Single clone of ampicillin-resistant Escherichia coli was selected and inoculated in 100 mL LB medium and cultured at 200 rpm at 37° C. for 16 hours. Bacterial suspension of 20 mL was collected and centrifuged at 8,000 rpm for 5 min. The resulting bacterial pellets were washed with equal volume of 0.85% saline solution, suspended in M9 medium containing 10 mM sodium acetate and then adjusted to […] of 0.5. Aliquots of 5 mL bacterial cells were transferred to test tubes for further application.
The sample was added with 160 μg/mL ampicillin and 0-20 Mm glucose, then cultured in a shaker at 200 rpm at 37° C. for 4 hours. The cell number was counted and survival rate was calculated. […]

[7] = tested on: antibiotic-resistant bacteria in kidneys; assay: Mouse urinary tract infection model, bacterial content in kidneys; assay type: in vivo; settings: mice, tail i.v. twice-daily for 3 days; glutamine 100 mg kg−1, glucose 100 mg kg−1, ampicillin 320 mg kg−1 as present; saline group 16750
Protocol: In vivo experiments in mice, female mice (5 weeks, weighing 18-20 g) received surgical implantation in the urinary tract of PESO catheter tubes. The mice were randomly divided into six groups in 48 h after the surgery, five each group. The six groups included treatment with saline (group 1), 100 mg kg^−1 glutamine (group 2), 320 mg kg^−1 ampicillin (group 3), 100 mg kg^−1 glutamine plus 320 mg kg^−1 ampicillin (group 4), 100 mg kg^−1 glucose plus 320 mg kg^−1 ampicillin (group 5), and 100 mg kg^−1 glutamine and 100 mg kg^−1 glucose plus 320 mg kg^−1 ampicillin (group 6) by tail intravenous injection for 3 days, twice-daily. Catheter tubes were extracted in 24 hours after the last treatment. To dislodge biofilm cells, catheters were suspended in saline solution with ultrasonic. Serial dilutions and spot-plating were performed to determine the bacterial survival rate in biofilm. The survival rate was calculated as: viable counts in treatment group/viable counts in control group×100%.
Meanwhile, kidneys of mice were homogeneous with appropriate amount of saline. Bacterial content in kidneys was determined by plate counting method.

Molecule	MIC [1] [mg/L]	MIC [2] [mg/L]	MIC10/MIC0 [2]	other results
NC[C@H]1O[C@H](O[C@H]2[C@H](O)[C@@H](O[C@H]3O[C@H](CO)[C@@H](O)[C@H](N)[C@H]3O)[C@H](N)C[C@@H]2N)[C@H](O)[C@@H](O)[C@@H]1O [KAN, kanamycin]	6.25 (≈ 12.9 µM)	400	64	–
CC[C@H]1OC(=O)[C@H](C)[C@@H](O[C@H]2C[C@@](C)(OC)[C@@H](O)[C@H](C)O2)[C@H](C)[C@@H](O[C@@H]2O[C@H](C)C[C@H](N(C)C)[C@H]2O)[C@](C)(O)C[C@@H](C)C(=O)[C@H](C)[C@@H](O)[C@]1(C)O [ER, erythromycin]	50 (≈ 68.1 µM)	3200	64	–
CC1(C)S[C@@H]2[C@H](NC(=O)[C@H](N)c3ccccc3)C(=O)N2[C@H]1C(=O)O [ampicillin]	6.25 (≈ 17.9 µM)	400	64	elimination of biofilm by single agent ([3]; 20 mM glutamine or 160 μg/mL ampicillin alone): did not eliminate the antibiotic-resistant bacterium biofilm; bacterial survival rate in biofilm (treatment group/saline control) ([3]; 20 mM glutamine, 160 μg/mL ampicillin, 20 mM glucose as present): 92.84%; survival rate [4]: 74.22%; bacterial survival rate in catheter biofilm in comparison with saline control [5]: 76.81%; survival rate ([6]; 20 μg/mL ampicillin, without or with 20 mM glutamine, 4 hours): 99.81%; survival rate ([6]; 40 μg/mL ampicillin, without or with 20 mM glutamine, 4 hours): 97.27%; survival rate ([6]; 80 μg/mL ampicillin, without or with 20 mM glutamine, 4 hours): 95.55%; survival rate ([6]; 160 μg/mL ampicillin without glutamine, 7 hours): 74%; survival rate ([6]; 160 μg/mL ampicillin without glutamine, after 8 hours): 66.19%; viable counts of bacteria ([6]; 160 μg/mL ampicillin without glutamine, during 1-4 hours): remained unchanged; survival rate ([6]; 160 μg/mL ampicillin, without glucose or with increasing glucose (0-20 Mm), 4 hours): 94.33%; survival rate ([6]; 160 μg/mL ampicillin, without glutamine or with increasing glutamine concentration, 4 hours): 94.33%; survival rate ([6]; 160 μg/mL ampicillin, without or with 20 mM glutamine, 4 hours): 93.72%; survival rate ([6]; 240 μg/mL ampicillin, without or with 20 mM glutamine, 4 hours): 86.72%; survival rate ([6]; 320 μg/mL ampicillin, without or with 20 mM glutamine, 4 hours): 83.51%; survival rate ([6]; 400 μg/mL ampicillin, without or with 20 mM glutamine, 4 hours): 67.15%; bacterial content in kidneys [7]: 9129 cell/g
CC(C)(O/N=C(\C(=O)N[C@@H]1C(=O)N2C(C(=O)[O-])=C(C[n+]3ccccc3)CS[C@H]12)c1csc(N)n1)C(=O)O [CAZ, ceftazidime]	0.125 (≈ 0.229 µM)	8	–	–
gentamicin	–	–	64	MIC0 ([1]; before passage): 1.25 µg/mL; MIC10 ([2]; after 10 serial passages in LB with the respective antibiotic at 1/2 MIC, 37° C.): 80 mg/L
[H]/N=C(/N)N[C@H]1[C@H](O)[C@@H](O)[C@H](O[C@@H]2O[C@@H](C)[C@](O)(C=O)[C@H]2O[C@@H]2O[C@@H](CO)[C@H](O)[C@@H](O)[C@@H]2NC)[C@@H](N/C(N)=N\[H])[C@@H]1O [SM, streptomycin]	6.25 (≈ 10.7 µM)	400	64	–
O=C(N[C@H](CO)[C@H](O)c1ccc([N+](=O)[O-])cc1)C(Cl)Cl [CAP, chloramphenicol]	6.8 (≈ 21 µM)	435	64	–
CCn1cc(C(=O)O)c(=O)c2ccc(C)nc21 [NA, nalidixic acid]	5 (≈ 21.5 µM)	320	64	–
CN(C)[C@@H]1C(O)=C(C(N)=O)C(=O)[C@@]2(O)C(O)=C3C(=O)c4c(O)cccc4[C@@](C)(O)[C@H]3C[C@@H]12 [TET, tetracycline]	3.12 (≈ 7.03 µM)	200	–	–
CNC1CCCN(c2c(F)cc3c(=O)c(C(=O)O)cn(C4CC4)c3c2OC)C1 (stereo not drawn) [BLFX, balofloxacin]	0.25 (≈ 0.642 µM)	16	64	–
